Entries after “also recorded” stand apart in the source; their conditions may differ.
What was measured:
[1] = tested on: central nervous system effects of THC; experiment: THC challenge PD, 21-30 mg THC with 10 or 30 mg Compound 1, simultaneous or 1 hr delay (Examples 4 and 9); format: in vivo, human
Experimental: FIG. 14 depicts a randomized, double-blind, placebo controlled study. Left to right. (a) 14 Adult volunteers ages 18-45 are selected; (b) A single oral dose and 24-hour assessment is conducted for groups (1) 21 mg THC+placebo; and (2) 21 mg THC+30 mg ANEB-001 (c) 7 to 14 day follow up is conducted. Primary endpoints include inhibition of central nervous system effects of THC using (a) visual analog scale “feeling high”; (b) visual analog scale “alertness”; (c) body sway; (d) heart rate. Secondary endpoints include additional efficacy metrics, safety/tolerability, PK, and PK/PD correlations.
FIG. 15 depicts a randomized, double-blind, placebo controlled study. Left to right: (a) 11 Adult volunteers ages 18-45 are selected; (b) A single oral dose and 24-hour assessment is conducted for groups (1) 21 mg THC+placebo; and (2) 21 mg THC+10 mg ANEB-001 (c) 7 to 14 day follow up is conducted. Primary endpoints include inhibition of central nervous system effects of THC using (a) visual analog scale “feeling high”; (b) visual analog scale “alertness”; (c) body sway; (d) heart rate. Secondary endpoints include additional efficacy metrics, safety/tolerability, PK, and PK/PD correlations.
Following the general methods of Example 2, the study design was adjusted such that groups received either (a) THC (21 mg)+placebo or (b) THC (21 mg)+Compound 1 (30 mg) (FIG. 14) or either (a) THC (21 mg)+placebo or (b) THC (21 mg)+Compound 1 (10 mg) (FIG. 15). […] Summary of pharmacokinetics of THC with 30 mg ANEB-001 challenge (FIG. 18A and FIG. 18B), AUC after 5 hours (FIG. 18C), AUC last (FIG. 18D) and Cmax (FIG. 18E).
Following the general methods of Examples 1-3, the study design was adjusted such that Compound 1 was administered 1 hour after administration of THC. Groups received either (a) THC (21 mg)+Compound 1 (10 mg); (b) THC […]+Compound 1 (10 mg); (c) THC (30 mg)+Compound 1 (10 mg); or (d) THC (30 mg)+Compound 1 (10 mg). […] Endpoints were then evaluated as generally described in Example 1, and PK properties were measured as shown for the general methods of Example 2.

[2] = Safety/tolerability in the phase 2 THC challenge study (50 and 100 mg Compound 1); details: for QTcF, mean increase from baseline: 3 hours post dose, 3.1 ms in placebo group
[3] = 30 mg THC, 10 mg ANEB-001, 1 hr Delay, p = 0.0007
[4] = 30 mg THC, 10 mg ANEB-001, 1 hr Delay, p = <0.0001
[5] = 21-30 mg THC, 10 mg ANEB-001, 1 hr Delay (pooled), p = <0.0001
[6] = 50 mg Compound 1 group (20 per arm)
[7] = 100 mg Compound 1 group (20 per arm)

SMILES: CC(C)(C)NC(=O)N1CC(O[C@H](c2ccc(Cl)cc2)c2ccccc2C(F)(F)F)C1 [Compound 1, (R)—N-(tert-butyl)-3-((4-chlorophenyl)(2-(trifluoromethyl)phenyl)methoxy)azetidine-1-carboxamide]
- VAS External Perception log(mm) [1, 3]: Reversed
- VAS Internal Perception log(mm) [1, 3]: Reversed
- VAS Alertness (mm) ([1]; 30 mg THC, 10 mg ANEB-001, 1 hr Delay, p = 0.0042): 10.8 mm
- VAS good drug effect ([1]; 30 mg THC, 10 mg ANEB-001, 1 hr Delay, p = 0.0112): Reversed
- Body Sway (mm) ([1]; 30 mg THC, 10 mg ANEB-001, 1 hr Delay, p = 0.0196): −34.8%
- Heart Rate (supine) (bpm) ([1]; 30 mg THC, 10 mg ANEB-001, 1 hr Delay, p = 0.1119): 6.7 bpm
- Responder Rate (VAS Feeling High) [1, 4]: Reversed
- VAS Feel drug effect [1, 4]: Reversed
- VAS Feeling High log(mm) [1, 4]: −0.8581 log(mm)
- Responder Rate (VAS Feeling High) ([1]; 21-30 mg THC, 10 mg ANEB-001, 1 hr Delay (pooled), p = 0.0002): Reversed
- VAS Feel drug effect ([1]; 21-30 mg THC, 10 mg ANEB-001, 1 hr Delay (pooled), p = 0.0003): Reversed
- Body Sway (mm) ([1]; 21-30 mg THC, 10 mg ANEB-001, 1 hr Delay (pooled), p = 0.0014): −32.4%
- VAS good drug effect ([1]; 21-30 mg THC, 10 mg ANEB-001, 1 hr Delay (pooled), p = 0.0021): Reversed
- VAS Alertness (mm) ([1]; 21-30 mg THC, 10 mg ANEB-001, 1 hr Delay (pooled), p = 0.0024): 11.3 mm
- VAS Internal Perception log(mm) ([1]; 21-30 mg THC, 10 mg ANEB-001, 1 hr Delay (pooled), p = 0.0040): Reversed
- Heart Rate (supine) (bpm) ([1]; 21-30 mg THC, 10 mg ANEB-001, 1 hr Delay (pooled), p = 0.0125): −8.1 bpm
- VAS bad drug effect ([1]; 21-30 mg THC, 10 mg ANEB-001, 1 hr Delay (pooled), p = 0.0274): Reversed
- VAS External Perception log(mm) [1, 5]: Reversed
- VAS Feeling High log(mm) [1, 5]: −0.7028 log(mm)
- VAS drug effects (feeling any drug effect) ([1]; Compound 1 one hour after THC, vs THC alone): highly significant reduction in feeling any drug effect
- Proportion of responders (reduction in feeling high) ([1]; THC 21 or 30 mg, 10 mg or 30 mg Compound 1, vs THC alone): highly significant increase in the proportion of responders
- VAS alertness ([1]; coadministration or Compound 1 after THC, vs THC alone): significant reduction in VAS alertness
- Recovery time (feeling high time course) ([1]; coadministration or Compound 1 one hour after THC): reduced recovery time by several hours
- VAS feeling high ([1]; coadministration or Compound 1 one hour after THC, vs THC alone, overall p<0.0001): highly significant reduction in feeling high
- All primary outcomes, pre-specified pooled analysis ([1]; combined 21 mg or 30 mg THC, 10 mg Compound 1 one hour after THC): achieved statistical significance on all primary outcomes
- Key psychotropic effects of THC ([1]; single oral 10 mg Compound 1, 1 hour after THC challenge, THC doses as high as 30 mg): rapidly reversed key psychotropic effects of THC
- VAS nausea ([2]; 10.5 mg THC + 50 or 100 mg Compound 1 vs THC/placebo): No significant difference overall between treatment groups
- Depressed mood, number of subjects [2, 6]: 1 subject
- Feeling hot, number of subjects [2, 6]: 6 subjects
- Hyperhidrosis, number of subjects [2, 6]: 6 subjects
- Nausea, number of subjects [2, 6]: 13 subjects
- Vomiting, number of subjects [2, 6]: 1 subject
- QTcF, mean increase from baseline ([2]; 50 mg Compound 1 group): 7.9 ms
- Heart rate, mean increase following dosing (up to) ([2]; 50 mg and 100 mg Compound 1 group, placebo group up to ~6 bpm): 3-4 bpm
- Depressed mood, number of subjects [2, 7]: 2 subjects
- Feeling hot, number of subjects [2, 7]: 4 subjects
- Hyperhidrosis, number of subjects [2, 7]: 7 subjects
- Nausea, number of subjects [2, 7]: 8 subjects
- Vomiting, number of subjects [2, 7]: 6 subjects
- QTcF, mean increase from baseline ([2]; 100 mg Compound 1 group): 9.9 ms
- Increase in total bilirubin compared to baseline ([2]; 50 and 100 mg Compound 1 groups, 24 h post dose, 1.4 mol/L in placebo group): 5
- Severity of adverse events ([2]; 50 and 100 mg Compound 1 with 10.5 mg THC): mild and transient except in the case of one subject in the 50 mg Compound 1 group who experienced moderate nausea and vomiting; also recorded: transient and of mild severity, except one case of vomiting of moderate severity in the 50 mg Compound 1 treatment group
- AESI: systolic blood pressure increase compared to baseline ([2]; one subject, 100 mg Compound 1 group): > 30 mmHg
- Overall safety and tolerability ([2]; single doses of 50 and 100 mg Compound 1): safe and well tolerated by most subjects
